Assays:
[1] = ABTS radical cation scavenging assay; type: biochemical; conditions: compound 0.1 mM, 1 min
Source text: For the above reasons, the antioxidant ability of 5–F–saloH and Cu(II) complexes 1–5 has been evaluated via their scavenging activity towards DPPH and ABTS radicals, as well as the ability to reduce H2O2, and in comparison with that of well-known antioxidant agents such as nordihydroguaiaretic acid (NDGA), butylated hydroxytoluene (ΒHΤ), 6–hydroxy–2,5,7,8–tetramethylchromane–2–carboxylic acid (trolox) and L–ascorbic acid (these are the most commonly used standard reference antioxidant agents). The DPPH-radical assay was developed in the 1950s and this method has been used to assess the antioxidant capacity of several metal complexes. The DPPH–scavenging ability of compounds has often been related to their ability to prevent ageing, cancer and inflammation. The ability of a compound to scavenge the cationic ABTS radicals (ABTS^+●) has been considered a measure of its total antioxidant activity. Further, hydrogen peroxide has the ability to penetrate biological membranes and, although it is not very reactive itself, it can sometimes be toxic since it may give rise to hydroxyl radicals in cells. For this reason, the removal of H2O2 is very important for the protection of living systems. When a compound is incubated with H2O2 using a peroxidase assay system, the loss of H2O2 can be measured.
S1 Antioxidant activity assay
The antioxidant activity of the compounds was evaluated via their ability to scavenge in vitro free radicals such as DPPH and ABTS and to reduce H 2O2. All the experiments were carried out at least in triplicate and the standard deviation of absorbance was less than 10% of the mean. […]
S1.2 Assay of radical cation ABTS-scavengin g activity
The ABTS assay was performed to determine the activity of the compounds to scavenge the radical cation ABTS. Initially, a water solution of ABTS was prepared (2 mM). ABTS radical cation (ABTS+·) was produced by the reaction of ABTS stock solution with potassium persulfate (0.17 mM) and the mixture was stored in the dark at room temperature for 12-16 h before its use. The ABTS was oxidized incompletely because the stoichiometric reaction ratio of ABTS and potassium persulfate is 1:0.5. The absorbance became maximal and stable only after more than 6 h of reaction although the oxidation of the ABTS started immediately. The radical was stable in this form for more than 2 days when allowed to stand in the dark at room temperature. Afterwards, the ABTS+· solution was diluted in ethanol to an absorbance of 0.70 at 734 nm and 10 μL of diluted compounds or standards (0.1 mM) in DMSO were added. The absorbance was recorded out exactly 1 min after init ial m ix in g [S 1]. The ABTS radical scavenging act ivit y was expressed as the percentage inhibition of the absorbance of the initial ABTS solution (ABTS%). Trolox was used as an appropriate standard. […]

CT DNA = experiment: Binding study with CT DNA by UV-vis spectroscopy; set-up: species or system calf
Method: Initially, the UV–vis spectra of complexes 1–5 (2.5 × 10^−5 – 1 × 10^−4 M) were recorded in the presence of incremental amounts of CT DNA (Figure 4), and the changes of the λmax of the bands observed in the spectra of the complexes were monitored as a means to study the interaction between complexes and CT DNA [50] and to calculate the corresponding DNA-binding constants (Kb). As observed, in the UV–vis spectra of the complexes, at least two bands were observed: band I in the range 314–339 nm and band II in the region 380–428 nm. […] These features indicate the interaction of the complexes with CT DNA [51], but may not provide sufficient information to reveal the possible interaction mode. Therefore, for the elucidation of the CT DNA interaction mode, further experiments involving DNA-viscosity measurements and competitive studies with EB were performed. […]
S2Binding studies with CT DNA
The interaction of the compounds with CT DNA was studied by UV-vis spectroscopy, viscosity measurements a nd via competit ive stud ie s with EB by fl uorescence […]
S2.1 Binding study with CT DNA by UV -vis spectroscopy
The interaction of the compounds with CT DNA has been studied by UV-vis spectroscopy in order to investigate the possible binding modes to CT DNA and to calculate the DNA-binding constants (Kb). The Kb constants (in M-1) were determined by the Wolfe-Shimer equation (eq. S1) [S3] and the plots [DNA]/(εA-εf) versus [DNA] using the UV-vis spectra of the compounds (20 -100 μM) recorded for a constant concentration with increasing concentrations of CT DNA for diverse [complex]/[DNA] mixing ratios (= r ).
Control experiments with DMSO were performed and no changes in the spectra of CT DNA were observed. […]
[DNA] = [DNA] + 1 (eq. S1) […]
where [DNA] is the concentration of DNA in base pa irs, εA = Aobsd/[compound ], εf = the extinction coefficient for the free compound and ε b = the extinction coefficient for the compound in the fully bound form. Kb is given by the ratio of slope to the y intercept in plots [DNA]/(εA-εf) versus[DNA]. […]

[2] = first UV band listed in the cell (295–334 nm)
[3] = second UV band listed in the cell (330–421 nm)

O=Cc1cc(F)ccc1[O-].O=Cc1cc(F)ccc1[O-].[Cu+2] [Complex 1, [Cu(5–F–salo)2]]
ABTS%, % ABTS–scavenging activity [1]: 78.89 ± 0.18% | ΔA/Aο, percentage of hyper-/hypo-chromism upon addition of CT DNA (CT DNA; [2]): −34% | ΔA/Aο, percentage of hyper-/hypo-chromism upon addition of CT DNA (CT DNA; [3]): −20%

O=Cc1cc(F)ccc1[O-].[Cl-].[Cu+2].c1ccc(Nc2ccccn2)nc1 [Complex 2, [Cu(5–F–salo)(bipyam)Cl]]
ABTS%, % ABTS–scavenging activity [1]: 48.89 ± 0.38% | ΔA/Aο, percentage of hyper-/hypo-chromism upon addition of CT DNA (CT DNA; [2]): −12% | ΔA/Aο, percentage of hyper-/hypo-chromism upon addition of CT DNA (CT DNA; [3]): > +50%

CO.Cc1ccc2ccc3ccc(C)nc3c2n1.O=Cc1cc(F)ccc1[O-].[Cl-].[Cu+2] [Complex 3, [Cu(5–F–salo)(neoc)Cl].CH3OH]
ABTS%, % ABTS–scavenging activity [1]: 46.03 ± 0.60% | ΔA/Aο, percentage of hyper-/hypo-chromism upon addition of CT DNA (CT DNA; [2]): −41% | ΔA/Aο, percentage of hyper-/hypo-chromism upon addition of CT DNA (CT DNA; [3]): +34%

O=Cc1cc(F)ccc1[O-].O=[N+]([O-])[O-].[Cu+2].c1cnc2c(c1)ccc1cccnc12 [Complex 4, [Cu(5–F–salo)(phen)(NO3)]]
ABTS%, % ABTS–scavenging activity [1]: 48.14 ± 0.35% | ΔA/Aο, percentage of hyper-/hypo-chromism upon addition of CT DNA (CT DNA; [2]): −38% | ΔA/Aο, percentage of hyper-/hypo-chromism upon addition of CT DNA (CT DNA; [3]): −29% | ΔA/Aο, percentage of hyper-/hypo-chromism upon addition of CT DNA (CT DNA; third UV band listed in the cell (405 nm)): +44%

O=Cc1cc(F)ccc1[O-].O=[N+]([O-])[O-].[Cu+2].c1ccc(-c2ccccn2)nc1 [Complex 5, [Cu(5–F–salo)(bipy)(NO3)]]
ABTS%, % ABTS–scavenging activity [1]: 7.36 ± 0.08% | ΔA/Aο, percentage of hyper-/hypo-chromism upon addition of CT DNA (CT DNA; [2]): −72% | ΔA/Aο, percentage of hyper-/hypo-chromism upon addition of CT DNA (CT DNA; [3]): −28%

From publication PMC9782626, “Copper(II) Complexes of 5–Fluoro–Salicylaldehyde: Synthesis, Characterization, Antioxidant Properties, Interaction with DNA and Serum Albumins” (Molecules, 2022)
